How the values were obtained:
[1] = Membrane permeability test (Caco-2 monolayer); assay type: in vitro ADME; settings: human, Caco-2, pH 7.4
Method: Caco-2 cells purchased from ATCC were seeded onto 0.4 μm pore polycarbonate membranes (PC) in 96-well Corning Insert plates at 3.5×10^4 cells/cm^2, and refreshed medium every 4˜5 days until to the 21st to 28th day for confluent cell monolayer formation.
The transport buffer in the study was HBSS with 10.0 mM HEPES at pH 7.40±0.05. Each test compound was tested at 2.00 μM in the presence or absence of 1.00 μM zosuquidar bi-directionally in duplicate. Digoxin was tested at 10.0 μM in the presence or absence of 1.00 μM zosuquidar bi-directionally in duplicate, while nadolol and metoprolol were tested at 2.00 μM in the absence of zosuquidar in A to B direction in duplicate. Final DMSO concentration was adjusted to less than 1%. The plate was incubated for 2 hours in CO2 incubator at 37.0° C., with 5% CO2 at saturated humidity without shaking. And all samples after mixed with acetonitrile containing internal standard were centrifuged at 3220×g for 10 min. Concentrations of test compounds in starting solution, donor solution and receiver solution were quantified by LC-MS/MS methodologies, using peak area ratio of analyte/internal standard. And permeation of lucifer yellow through the monolayer was measured to evaluate the cellular integrity.
The apparent permeability coefficient Papp (cm/s) was calculated using the equation: […]
where dCr/dt is the cumulative concentration of compound in the receiver chamber as a function of time; Vr is the solution volume in the receiver chamber (0.0750 mL on the apical side, 0.250 mL on the basolateral side); A is the surface area for the transport, i.e., 0.143 cm2 for the area of the monolayer; C0 is the initial concentration in the donor chamber.

[2] = tested on: NCI-N87; assay: Cytotoxicity test, luminescent cell viability; assay type: cell-based; settings: Homo sapiens; NCI-N87 (Stomach cancer), 72-hour incubation; read-out: IC50 NC-N87
Description: (§1) Cytotoxicity of compounds was investigated using SHP77 (SCLC ATCC No. CRL-2195), NCI-H82 (SCLC, Jennio-bio No. JNO-22126A), NCI-H524 (SCLC, Pricella NO. CL-0403), NCI-H226 (Lung cancer, Pricella NO. CL-0396), NCI-H460 (LCLC, Pricella NO. CL-0299), OVCAR3 (Ovarian cancer, ATCC No. HTB-161), OV90 (Ovarian cancer, ATCC No. CRL-11732), LS1034 (Colon carcinoma, cobioer No. CBP60013), HT55 (Colon carcinoma, cobioer No. CBP60012), MDA-MB-468 (Breast cancer, ATCC No.htb-132) and NCI-N87 (Stomach cancer, ATCC No.CRL-5822). In brief, 5,000 cells/well of cancer cells were platted in white 96-well assay plates with flat clear bottom (Cat. No. BS-MP-96W, Biosharp) (excluding edge wells, which contained medium or PBS only) in 90 μL basic culture medium and were grown at 37° C. in a humidified incubator at 5% CO2 atmosphere. After incubation overnight, each compound was added to the respective wells in an amount of 10 μl of 10× concentrate tests from 100 nM to 0.015 nM. After additional 72-hour incubation, plates were removed from incubator and equilibrated to room temperature. After approximately 30 mins, 50 μL of Cell counting-lite 2.0 Luminescent Cell Viability Assay (Cat. No. G7573, Promega) were added to each well. After shaking the plates at 450 rpm for 3 mins followed by 10-min incubation without shaking, luminescence was measured on the Envision plate reader (Equipment No. 2104, PerkinElmer) with integration time of 250 ms per well. Curves of luminescence versus concentration (nM) were fitted with GraphPad Prism Software.

[3] = tested on: NCI-H460; assay: Cytotoxicity test, luminescent cell viability; assay type: cell-based; settings: Homo sapiens; NCI-H460 (LCLC), 72-hour incubation
Description: as §1

[4] = tested on: OV90; assay: Cytotoxicity test, luminescent cell viability; assay type: cell-based; settings: Homo sapiens, OV-90; OV90 (Ovarian cancer), 72-hour incubation
Description: as §1

[5] = tested on: NCI-H524; assay: Cytotoxicity test, luminescent cell viability; assay type: cell-based; settings: Homo sapiens; NCI-H524 (SCLC), 72-hour incubation
Description: as §1

[6] = tested on: HT55; assay: Cytotoxicity test, luminescent cell viability; assay type: cell-based; settings: Homo sapiens; HT55 (Colon carcinoma), 72-hour incubation
Description: as §1

[7] = tested on: MDA-MB-468; assay: Cytotoxicity test, luminescent cell viability; assay type: cell-based; settings: Homo sapiens; MDA-MB-468 (Breast cancer), 72-hour incubation
Description: as §1

[8] = tested on: NCI-H82; assay: Cytotoxicity test, luminescent cell viability; assay type: cell-based; settings: Homo sapiens; NCI-H82 (SCLC), 72-hour incubation
Description: as §1

[9] = tested on: NCI-H226; assay: Cytotoxicity test, luminescent cell viability; assay type: cell-based; settings: Homo sapiens; NCI-H226 (Lung cancer), 72-hour incubation
Description: as §1

[10] = tested on: SHP77; assay: Cytotoxicity test, luminescent cell viability; assay type: cell-based; settings: Homo sapiens; SHP77 (SCLC), 72-hour incubation
Description: as §1

[11] = tested on: LS1034; assay: Cytotoxicity test, luminescent cell viability; assay type: cell-based; settings: Homo sapiens, LS-1034; LS1034 (Colon carcinoma), 72-hour incubation
Description: as §1

[12] = tested on: OVCAR3; assay: Cytotoxicity test, luminescent cell viability; assay type: cell-based; settings: Homo sapiens, OVCAR-3; OVCAR3 (Ovarian cancer), 72-hour incubation
Description: as §1

Row | SMILES | Papp A→B at 2 h, 2 μM [1] [×10⁻⁶ cm/s] | IC50 [2] [nM] | IC50 [3] [nM] | IC50 [4] [nM] | IC50 [5] [nM] | IC50 [6] [nM] | IC50 [7] [nM] | IC50 [8] [nM] | IC50 [9] [nM] | IC50 [10] [nM] | IC50 [11] [nM] | IC50 [12] [nM]
1 | CC[C@@]1(O)C(=O)OCc2c1cc1n(c2=O)Cc2c-1nc1cc(F)c(C)c3c1c2[C@H](NC(=O)C1CCCO1)CC3 (some centres unmarked) [Compound 7] | 0.56 | 7.4 | 11.2 | 26 | 39.5 | 104 | 4.8 | 171 | 17.9 | 236 | 170 | 144
2 | CCCCC(=O)N[C@@H]1CCc2c(C)c(F)cc3nc4c(c1c23)Cn1c-4cc2c(c1=O)COC(=O)[C@]2(O)CC [Compound 1] | 0.365 | 6.2 | 10.2 | 3.9 | 4.4 | 130 | 2.5 | 96 | 4.8 | 45.7 | 63.5 | 92.9
3 | CC[C@@]1(O)C(=O)OCc2c1cc1n(c2=O)Cc2c-1nc1cc(F)c(C)c3c1c2[C@H](NC(=O)CN(C)C)CC3 [Compound 2] | 0.199 | 13 | 15.5 | 15.2 | 40.4 | 315 | 10.8 | 154 | 21 | 301 | 205 | 208
4 | CC[C@@]1(O)C(=O)OCc2c1cc1n(c2=O)Cc2c-1nc1cc(F)c(C)c3c1c2[C@H](NC(=O)C1CCC1)CC3 [Compound 6] | 0.264 | 3.5 | 6.8 | 8.9 | 9.9 | 215 | 2.5 | 57.3 | 3.8 | 68 | 55.3 | 89.3
5 | CC[C@@]1(O)C(=O)OCc2c1cc1n(c2=O)Cc2c-1nc1cc(F)c(C)c3c1c2[C@H](NC(=O)CC(C)C)CC3 [Compound 8] | – | 4.7 | 4.5 | 17.8 | 21 | 110 | 2.1 | 53.8 | 6 | 156 | 159 | 95.7
